Assay results reported in paper PMC6199744, “Development of Chemical Proteomics for the Folateome and Analysis of the Kinetoplastid Folateome” (ACS Infectious Diseases, 2018).
Several values for one entry are separate records, joined by “and”; a condition that tells them apart may be missing. Equal values may be shown once. Read-outs that look alike come from different tables or passages of the source.

System: T. brucei lysate proteins
Type: binding, Trypanosoma brucei

NCCOCCOCC(=O)Nc1nc2ncc(CNc3ccc(C(=O)NC(CCC(=O)O)C(=O)O)cc3)nc2c(=O)[nH]1 (stereo not shown) [compound 6]
fold change vs vehicle control: 0.88 and 0.97 and 1.1 and 0.99 and 0.76 and 1 | fold change (protein CZB00000046.1 HA-UBIQUITIN, vehicle control = 1): 0.9 | fold change (protein CZT00018965.1 RETRO[…] (RHS) PROTEIN 1, vehicle control = 1): 1.49 | fold change (protein RHS6A, vehicle control = 1): 1 | fold change vs vehicle control (protein TB09.160.3270 ATP-DEPENDENT DEAD BOX HELICASE, PUTATIVE, vehicle control = 1): 1.28 | fold change vs vehicle control (protein TB09.160.4200 60S ACIDIC RIBOSOMAL PROTEIN, PUTATIVE, vehicle control = 1): 0.88 | fold change vs vehicle control (protein TB09.211.2630 60S RIBOSOMAL PROTEIN L23, PUTATIVE, vehicle control = 1): 0.96 | fold change (protein TB09.211.4760 METACASPASE 5, PUTATIVE, vehicle control = 1): 0.82 | fold change (protein TB11.01.1690 HY[…], CONSERVED, vehicle control = 1): 1.19 | fold change vs vehicle control (protein TB11.01.2560 40S RIBOSOMAL PROTEIN SA, PUTATIVE, vehicle control = 1): 0.94 | fold change vs vehicle control (protein TB11.01.3180 GUANINE NUCLEOTIDE-BINDING PROTEIN BETA SUBUNIT-LIKE PROTEIN, vehicle control = 1): 0.97 | fold change (protein TB11.01.3560 VACUOLAR ATP SYNTHASE SUBUNIT B, PUTATIVE, vehicle control = 1): 0.93 | fold change vs vehicle control (protein TB11.01.4370 HY[…], CONSERVED, vehicle control = 1): 0.96 | fold change (protein TB11.01.5350 PROFILIN, vehicle control = 1): 0.97 | fold change vs vehicle control (protein TB11.01.5910 DYNEIN IN[…] IC70, PUTATIVE, vehicle control = 1): 0.99 | fold change (protein TB11.01.8590 RAB-LIKE 5, SMALL G PROTEIN, vehicle control = 1): 0.94 | fold change (protein TB11.01.8740 PROTEIN PHOSPHATASE 4, PUTATIVE, vehicle control = 1): 0.8 | fold change vs vehicle control (protein TB11.02.0730 METACASPASE, vehicle control = 1): 0.84 | fold change vs vehicle control (protein TB11.02.1135 DYNEIN LIGHT CHAIN, PUTATIVE, vehicle control = 1): 1.14 | fold change vs vehicle control (protein TB11.02.2040 HY[…], CONSERVED (ALBA-Domain Protein), vehicle control = 1): 1.34 | fold change vs vehicle control (protein TB11.02.2420 HY[…], CONSERVED, vehicle control = 1): 0.9 | fold change vs vehicle control (protein TB11.02.2510 GUANINE NUCLEOTIDE-BINDING BETA SUBUNIT-LIKE PROTEIN, vehicle control = 1): 1 | fold change vs vehicle control (protein TB11.02.2640 DYNEIN IN[…] IC78, PUTATIVE, vehicle control = 1): 0.97 | fold change (protein TB11.02.2960 MIT[…] PROTEIN, PUTATIVE, vehicle control = 1): 0.88 | fold change vs vehicle control (protein TB11.03.0250 C[…], vehicle control = 1): 1.45 | fold change (protein TB11.46.0009 HY[…], CONSERVED, vehicle control = 1): 0.99 | fold change vs vehicle control (protein TB427TMP.01.1680 POLYUBIQUITIN, PUTATIVE, vehicle control = 1): 1.25 | fold change (protein TB427TMP.01.1830 HY[…], CONSERVED, vehicle control = 1): 0.89 | fold change vs vehicle control (protein TB427TMP.01.4280 HY[…], CONSERVED, vehicle control = 1): 0.84 | fold change (protein TB427TMP.01.4750 […] 1 GAMMA, PUTATIVE, vehicle control = 1): 1 | fold change vs vehicle control (protein TB427TMP.01.5000 HY[…], CONSERVED, vehicle control = 1): 0.91 | fold change vs vehicle control (protein TB427TMP.01.5680 HY[…], CONSERVED, vehicle control = 1): 1.21 | fold change (protein TB427TMP.01.5960 MIT[…] PROTEIN, PUTATIVE, vehicle control = 1): 0.82 | fold change vs vehicle control (protein TB427TMP.01.6890 SMALL GTPASE, PUTATIVE, vehicle control = 1): 1.56 | fold change (protein TB427TMP.01.7490 HY[…], CONSERVED, vehicle control = 1): 0.97 | fold change (protein TB427TMP.01.8390 HY[…], CONSERVED, vehicle control = 1): 0.88 | fold change (protein TB427TMP.02.0030 DYNEIN HEAVY CHAIN, PUTATIVE, vehicle control = 1): 1 | fold change (protein TB427TMP.02.0760 DYNEIN HEAVY CHAIN, PUTATIVE, vehicle control = 1): 0.82 | fold change (protein TB427TMP.02.1070 AMINOPEPTIDASE, PUTATIVE, vehicle control = 1): 1.1 | fold change (protein TB427TMP.02.1460 HY[…], CONSERVED, vehicle control = 1): 0.98 | fold change (protein TB427TMP.02.1860 HY[…], CONSERVED, vehicle control = 1): 0.97 | fold change vs vehicle control (protein TB427TMP.02.2070 LONG-CHAIN-FATTY-ACID-COA LIGASE, PUTATIVE, vehicle control = 1): 0.99 | fold change vs vehicle control (protein TB427TMP.02.2120 NUCLEOPORIN 48, vehicle control = 1): 1.18 | fold change vs vehicle control (protein TB427TMP.02.2890 HY[…], CONSERVED, vehicle control = 1): 0.94 | fold change (protein TB427TMP.02.4100 PRETRA[…], ALPHA SUBUNIT, PUTATIVE, vehicle control = 1): 1.3 | fold change (protein TB427TMP.02.4550 HY[…], CONSERVED, vehicle control = 1): 0.88 | fold change (protein TB427TMP.02.5660 HY[…], CONSERVED, vehicle control = 1): 0.95 | fold change vs vehicle control (protein TB427TMP.02.5720 RIBONUCLEOSIDE-DIPHOSPHATE REDUCTASE LARGE CHAIN, vehicle control = 1): 0.88 | fold change (protein TB427TMP.160.2370 HY[…], CONSERVED, vehicle control = 1): 0.93 | fold change (protein TB427TMP.160.3630 CAMP-SPECIFIC PHOSPHODIESTERASE, vehicle control = 1): 0.97 | fold change (protein TB427TMP.160.4240 […] PROTEIN-LIKE PROTEIN, vehicle control = 1): 1.2 | fold change vs vehicle control (protein TB427TMP.160.4450 40S RIBOSOMAL PROTEIN S3, PUTATIVE, vehicle control = 1): 1.12 | fold change vs vehicle control (protein TB427TMP.160.4560 ARGININE KINASE, vehicle control = 1): 1.65 | fold change vs vehicle control (protein TB427TMP.160.4630 HY[…], CONSERVED, vehicle control = 1): 0.88 | fold change (protein TB427TMP.160.4770 PROTEIN KINASE, PUTATIVE, vehicle control = 1): 0.84 | fold change (protein TB427TMP.160.4910 FLAVOPROTEIN MONOOXYGENASE, PUTATIVE, vehicle control = 1): 0.97 | fold change (protein TB427TMP.160.5670 HY[…], CONSERVED, vehicle control = 1): 0.99 | fold change (protein TB427TMP.211.2460 HY[…], CONSERVED, vehicle control = 1): 0.99 | fold change vs vehicle control (protein TB427TMP.211.2570 T-COMPLEX PROTEIN 1, ETA SUBUNIT, PUTATIVE, vehicle control = 1): 0.91 | fold change vs vehicle control (protein TB427TMP.211.3140 HY[…], CONSERVED, vehicle control = 1): 1.47 | fold change vs vehicle control (protein TB427TMP.211.3510 ATP-DEPENDENT DEAD/H RNA HELICASE, PUTATIVE, vehicle control = 1): 0.88 | fold change vs vehicle control (protein TB427TMP.211.4170 HY[…], CONSERVED, vehicle control = 1): 0.88 | fold change (protein TB427TMP.47.0011 HY[…], CONSERVED, vehicle control = 1): 0.93 | fold change vs vehicle control (protein TB427TMP.55.0006 INTR[…] PROTEIN IFT88, vehicle control = 1): 0.95 | fold change vs vehicle control (protein TB427TMP.57.0008 CALPAIN-LIKE PROTEIN, PUTATIVE, vehicle control = 1): 0.97 | fold change (protein TB427TMP.V1.0370 HY[…], CONSERVED, vehicle control = 1): 0.88 | fold change vs vehicle control (protein TB427.01.120 RETRO[…] SPOT (RHS) PROTEIN, PUTATIVE, vehicle control = 1): 0.88 | fold change (protein TB427.01.2570 COATOMER BETA SUBUNIT, vehicle control = 1): 0.88 | fold change (protein TB427.01.420 RETRO[…] SPOT (RHS) PROTEIN, PUTATIVE, vehicle control = 1): 0.97 | fold change (protein TB427.01.5030 LEUCINE-RICH REPEAT PROTEIN (LRRP), PUTATIVE, vehicle control = 1): 0.93 | fold change vs vehicle control (protein TB427.02.2970 MIT[…] PROTEIN, PUTATIVE, vehicle control = 1): 1.21 | fold change vs vehicle control (protein TB427.02.6050 BETA PRIME COP PROTEIN, vehicle control = 1): 1.36 | fold change vs vehicle control (protein TB427.03.1210 PROTEIN TRANSPORT PROTEIN SEC24, vehicle control = 1): 1.1 | fold change vs vehicle control (protein TB427.03.3160 POLY(A) POLYMERASE, vehicle control = 1): 0.47 | fold change vs vehicle control (protein TB427.03.4040 HY[…], CONSERVED (Ankyrinrepeat), vehicle control = 1): 2.65 | fold change vs vehicle control (protein TB427.03.4750 AMINOPEPTIDASE, PUTATIVE, vehicle control = 1): 1.1 | fold change (protein TB427.03.4910 SIGNAL PEPTIDE PEPTIDASE, PUTATIVE, vehicle control = 1): 1.22 | fold change (protein TB427.04.1300 HY[…], CONSERVED, vehicle control = 1): 1.2 | fold change vs vehicle control (protein TB427.04.1510 PHOSPHOLIPID-TRA[…], PUTATIVE, vehicle control = 1): 1 | fold change (protein TB427.04.2340 HY[…], CONSERVED, vehicle control = 1): 0.92 | fold change (protein TB427.04.310 HY[…], CONSERVED, vehicle control = 1): 0.6 | fold change (protein TB427.04.420 PHOSPHATIDYLINOSITOL 3-KINASE (TOR2), vehicle control = 1): 0.71 | fold change (protein TB427.04.450 COATOMER ALPHA SUBUNIT, PUTATIVE, vehicle control = 1): 0.86 | fold change vs vehicle control (protein TB427.04.4870 AMINO ACID TRANSPORTER, PUTATIVE, vehicle control = 1): 1.1 | fold change (protein TB427.04.5010 CALRETICULIN, PUTATIVE, vehicle control = 1): 1.53 | fold change vs vehicle control (protein TB427.05.1700 R[…] A 28 KDA SUBUNIT, PUTATIVE, vehicle control = 1): 1.31 | fold change vs vehicle control (protein TB427.05.3260 HY[…], CONSERVED, vehicle control = 1): 0.88 | fold change vs vehicle control (protein TB427.05.4560 GUANINE DEAMINASE, PUTATIVE, vehicle control = 1): 0.93 | fold change vs vehicle control (protein TB427.06.1070 HY[…], CONSERVED, vehicle control = 1): 0.94 | fold change vs vehicle control (protein TB427.06.1500 ALKYL-DIHYDR[…] SYNTHASE, vehicle control = 1): 0.97 | fold change (protein TB427.06.1800 PROTEIN PHOSPHATASE 2C, PUTATIVE, vehicle control = 1): 0.92
